# What was measured:
# Type in all cases: cell-based, human
# [1] = test system: TF1 hemopoietic progenitor cell line; test: Resistance of siRNA-transfected TF1 cells to chemotherapy drugs, [3H]-thymidine incorporation; conditions: 4 days after transfection, cisplatin, doxorubicin and taxotere, complete growth media, read 2 days later, vs control siRNA, FIG. 2
# Method: The TF1 hemopoietic progenitor cell line was transfected with SHIP1 siRNA or control siRNA as in FIG. 1. After 4 days, the cells were assessed at the indicated concentrations of cisplatin, doxorubicin and taxotere in the presence of complete growth media, [^3H]-thymidine incorporation was measured 2 days later.
# [2] = test system: TF1 cells; test: Survival of siRNA-transfected TF1 cells without growth factors, viable cells by trypan blue exclusion; conditions: absence of growth factors, counted daily by trypan blue exclusion, vs siNS, FIG. 1G
# Method: (§1) TF1 cells transfected with siSHIP (triangles) or siNS (squares) were cultured in the absence of growth factors and the total number of viable cells counted daily by trypan blue exclusion (FIG. 1G), TF1 cells were cultured in the presence of increasing concentrations of the growth promoting cytokine IL-5, 2 days after siRNA transfection. Proliferation of siSHIP (diamonds) and control siNS (solid diamonds) transfected TF-1 cells was measured by [^3H]-thymidine incorporation (FIG. 1H).
# [3] = test system: TF1 cells; test: Proliferation of siRNA-transfected TF1 cells with IL-5, [3H]-thymidine incorporation; conditions: sub-optimal levels of IL-5, 2 days after siRNA transfection, vs siNS, FIG. 1H
# Method: as §1
# [4] = test system: phospho PKB (Ser 473); test: Immunoblot of PKB / phospho PKB (Ser 473) in siRNA-transfected TF1 cells stimulated with GM-CSF; conditions: vs siNS, FIG. 1F
# Excerpt: TF1 cells transfected with siSHIP ([…], SEQ ID NO: 11) or siNS were stimulated with the cytokine GM-CSF for the indicated length of time.
substance,measurement,setting,value
"siSHIP: siRNA to human SHIP1 mRNA (NM_001017915), position 2437, AAGAGTCAGGAAGGAGAAAAT (SEQ ID NO: 11) (listed as DNA, chemistry not given here)",resistance to chemotherapy drugs ([3H]-thymidine incorporation),[1],significantly more resistant
same,survival (total number of viable cells),[2],considerably increased survival
same,proliferation ([3H]-thymidine incorporation),[3],considerably increased
same,activation of the PIP3 dependent kinase PKB (phospho PKB Ser 473),[4],enhanced the activation

# Reference: patent US20100099737A1, “COMPOSITIONS AND METHODS FOR TREATING MYELOSUPPRESSION” (priority 2006, published 2010)
